From patent publication US20070293568A1, “Neurocyte Protective Agent” (priority 2006, published 2007)

Assays:
[1] = test system: lipid peroxide in the blood; conditions: cited from earlier work
[2] = test system: mice, cerebral ischemia/reperfusion; conditions: reperfusing after cerebral ischemia, astaxanthin administered; cited from earlier work
[3] = test system: TH positive cell specific MnSOD-deficient mice (KO mice); experiment: Body weight change of KO mice given YAX in the diet; format: in vivo; conditions: overall conclusion from body weight, life span and behavior in TH positive cell specific MnSOD-deficient mice
Description: As genetically modified mice serving as models for neurodegeneration, in which MnSOD has been specifically deficient in dopamine cells of the substantia nigra and noradrenaline cells of the locus ceruleus in the central nervous system, tyrosine hydroxylase (TH) positive cell specific MnSOD-deficient mice were generated based on the method described in WO 2004/014131. Specifically, first, a homozygous MnSOD flox mouse (lox/lox, +/+) was mated with a TH-Cre transgenic mouse controlled by a TH (tyrosine hydroxylase) promoter, so that heterozygous mice (lox/w, Cre/+) having the TH-Cre transgene were generated. Then, the heterozygous mouse and a MnSOD flox mouse were mated to generate the TH positive cell specific MnSOD-deficient mice (lox/lox, Cre/+) of interest.
The YAX prepared in Preparation Example 2 was used as the astaxanthin, and this was administered with the diet. […] It should be noted that for comparison, the KO mice in the control group fed with an ordinary diet not containing YAX were monitored in the same manner.
The body weight was measured once a week, and a Student's t-test was performed. The life span was analyzed using the Kaplan-Meier method. […] The behavior was analyzed by the footprinting test. […] Specifically, ink is applied to the hind feet of the mice and the mice are allowed to walk, and the width of the footprints left behind is analyzed. […]

For `CC1=C(/C=C/C(C)=C/C=C/C(C)=C/C=C/C=C(C)/C=C/C=C(C)/C=C/C2=C(C)C(=O)[C@@H](O)CC2(C)C)C(C)(C)C[C@H](O)C1=O` [astaxanthin], the “lipid peroxide in the blood” value [1] is given as “suppresses”, the “depression in motor ability” value [2] is given as “suppressed” and the neurocyte protective activity [3] is given as “powerful neurocyte protective activity”.
